Data as given in ChEMBL document CHEMBL1201862, “PubChem BioAssay data set” (2004).
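Cells were grown in 96-well plates and exposed to each compound for 48 hours at five concentrations; endpoints were interpolated linearly between bracketing concentrations, or set to the highest concentration if not reached. Here, GI50 denotes the concentration required for 50% inhibition of growth.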 Activity calls are given as the source filed them. Rule as the data show it: active = GI50 up to about 1.1 µM and inactive = higher.

What was measured:
Experiment in all cases: NCI-60 cell line screen, 48 h
786-0 = test system: 786-0
A498 = test system: A498
A549 = test system: A549
ACHN = test system: ACHN
BT-549 = test system: BT-549
CAKI-1 = test system: CAKI-1
CCRF-CEM = test system: CCRF-CEM
COLO 205 = test system: COLO 205
DU-145 = test system: DU-145
EKVX = test system: EKVX
HCC 2998 = test system: HCC 2998
HCT-116 = test system: HCT-116
HCT-15 = test system: HCT-15
HL-60 = test system: HL-60
HOP-62 = test system: HOP-62
HOP-92 = test system: HOP-92
HT-29 = test system: HT-29
Hs-578T = test system: Hs-578T
IGROV-1 = test system: IGROV-1
K562 = test system: K562
KM12 = test system: KM12
LOX IMVI = test system: LOX IMVI
M14 = test system: M14
MCF7 = test system: MCF7
MDA-MB-231 = test system: MDA-MB-231
MDA-MB-435 = test system: MDA-MB-435
MDA-N = test system: MDA-N
MOLT-4 = test system: MOLT-4
Malme-3M = test system: Malme-3M
NCI-H226 = test system: NCI-H226
NCI-H460 = test system: NCI-H460
NCI-H522 = test system: NCI-H522
NCI/ADR-RES = test system: NCI/ADR-RES
OVCAR-3 = test system: OVCAR-3
OVCAR-4 = test system: OVCAR-4
OVCAR-5 = test system: OVCAR-5
OVCAR-8 = test system: OVCAR-8
PC-3 = test system: PC-3
RPMI-8226 = test system: RPMI-8226
RXF 393 = test system: RXF 393
SF-268 = test system: SF-268
SF-295 = test system: SF-295
SF-539 = test system: SF-539
SK-MEL-28 = test system: SK-MEL-28
SK-MEL-2 = test system: SK-MEL-2
SK-MEL-5 = test system: SK-MEL-5
SK-OV-3 = test system: SK-OV-3
SN12C = test system: SN12C
SNB-19 = test system: SNB-19
SR = test system: SR
SW-620 = test system: SW-620
T47D = test system: T47D
TK-10 = test system: TK-10
U-251 = test system: U-251
UACC-257 = test system: UACC-257
UACC-62 = test system: UACC-62
NCI-H23 = test system: NCI-H23
UO-31 = test system: UO-31

Measured: GI50

N=c1n(C(=O)N2CCCC2)c2cc(Cl)ccc2n1C1=NCCN1
40.6 µM: HCT-15
inactive: 786-0 54 µM | A498 > 100 µM | A549 > 100 µM | ACHN 43.7 µM | BT-549 60.1 µM | CAKI-1 43.2 µM | CCRF-CEM 41.7 µM | COLO 205 > 100 µM | DU-145 50 µM | EKVX > 100 µM | HCC 2998 > 100 µM | HCT-116 55.5 µM | HL-60 38.8 µM | HOP-62 > 100 µM | HOP-92 15.2 µM | HT-29 75.7 µM | Hs-578T > 100 µM | IGROV-1 73.3 µM | K562 40.6 µM | KM12 > 100 µM | LOX IMVI 28.3 µM | M14 59.6 µM | MCF7 35.8 µM | MDA-MB-231 67.9 µM | MDA-MB-435 52 µM | MDA-N 61.8 µM | MOLT-4 41.7 µM | Malme-3M 99.8 µM | NCI-H226 > 100 µM | NCI-H460 > 100 µM | NCI-H522 38.6 µM | NCI/ADR-RES 93.5 µM | OVCAR-3 80.5 µM | OVCAR-4 > 100 µM | OVCAR-5 > 100 µM | OVCAR-8 88.3 µM | PC-3 86.9 µM | RPMI-8226 15.7 µM | RXF 393 82.4 µM | SF-268 > 100 µM | SF-295 > 100 µM | SF-539 55.2 µM | SK-MEL-28 95.3 µM | SK-MEL-2 33.1 µM | SK-MEL-5 83 µM | SK-OV-3 > 100 µM | SN12C 70.5 µM | SNB-19 > 100 µM | SR 38.2 µM | SW-620 52.6 µM | T47D 24.2 µM | TK-10 86.5 µM | U-251 83.2 µM | UACC-257 > 100 µM | UACC-62 > 100 µM

CCOC(=O)C1C(=O)CC1(C)C (configuration not stated)
inactive: 786-0 > 10 µM | A498 > 10 µM | A549 > 10 µM | ACHN > 10 µM | BT-549 > 10 µM | CAKI-1 > 10 µM | CCRF-CEM > 10 µM | COLO 205 > 10 µM | DU-145 > 10 µM | EKVX > 10 µM | HCC 2998 > 10 µM | HCT-116 > 10 µM | HL-60 > 10 µM | HOP-62 > 10 µM | HOP-92 > 10 µM | HT-29 > 10 µM | Hs-578T > 10 µM | IGROV-1 > 10 µM | K562 > 10 µM | KM12 > 10 µM | LOX IMVI > 10 µM | M14 > 10 µM | MCF7 > 10 µM | MDA-MB-231 > 10 µM | MDA-MB-435 > 10 µM | MDA-N > 10 µM | MOLT-4 > 10 µM | Malme-3M > 10 µM | NCI-H226 > 10 µM | NCI-H23 > 10 µM | NCI-H460 > 10 µM | NCI/ADR-RES > 10 µM | OVCAR-3 > 10 µM | OVCAR-4 > 10 µM | OVCAR-5 > 10 µM | OVCAR-8 > 10 µM | PC-3 > 10 µM | RPMI-8226 > 10 µM | RXF 393 > 10 µM | SF-268 > 10 µM | SF-295 > 10 µM | SF-539 > 10 µM | SK-MEL-28 > 10 µM | SK-MEL-2 > 10 µM | SK-MEL-5 > 10 µM | SK-OV-3 > 10 µM | SN12C > 10 µM | SNB-19 > 10 µM | SR > 10 µM | SW-620 > 10 µM | T47D > 10 µM | TK-10 > 10 µM | U-251 > 10 µM | UACC-257 > 10 µM | UACC-62 > 10 µM | UO-31 > 10 µM
> 10 µM: HCT-15

CCC1c2[nH]c3ccccc3c2C[C@H]2C(=O)N3CCC[C@H]3C(=O)N12 (some centres not stated)
53.7 µM: HCT-15
inactive: 786-0 > 100 µM | A498 > 100 µM | A549 > 100 µM | ACHN > 100 µM | BT-549 > 100 µM | CAKI-1 > 100 µM | COLO 205 > 100 µM | DU-145 > 100 µM | EKVX > 100 µM | HCC 2998 > 100 µM | HCT-116 60.7 µM | HL-60 > 100 µM | HOP-62 > 100 µM | HOP-92 > 100 µM | HT-29 > 100 µM | Hs-578T > 100 µM | IGROV-1 > 100 µM | K562 > 100 µM | KM12 71.1 µM | LOX IMVI > 100 µM | M14 > 100 µM | MCF7 > 100 µM | MDA-MB-231 > 100 µM | MDA-MB-435 > 100 µM | MDA-N > 100 µM | MOLT-4 97.7 µM | Malme-3M 42.5 µM | NCI-H226 > 100 µM | NCI-H23 > 100 µM | NCI-H522 75.7 µM | NCI/ADR-RES > 100 µM | OVCAR-3 > 100 µM | OVCAR-4 > 100 µM | OVCAR-5 > 100 µM | OVCAR-8 > 100 µM | PC-3 37.4 µM | RPMI-8226 50.9 µM | RXF 393 > 100 µM | SF-268 > 100 µM | SF-295 > 100 µM | SK-MEL-28 > 100 µM | SK-MEL-2 > 100 µM | SK-MEL-5 30.4 µM | SK-OV-3 > 100 µM | SN12C > 100 µM | SNB-19 > 100 µM | SR 59.3 µM | SW-620 92.9 µM | T47D 67.8 µM | TK-10 > 100 µM | U-251 92.5 µM | UACC-257 48.6 µM | UACC-62 70.6 µM | UO-31 > 100 µM

C/C(=N\O)c1cccc(Nc2c3ccccc3nc3occc23)c1
3.38 µM: HCT-15
inactive: 786-0 13.4 µM | A498 16.7 µM | A549 4.93 µM | ACHN 8.07 µM | BT-549 3.29 µM | CAKI-1 1.96 µM | CCRF-CEM 3.4 µM | COLO 205 5.09 µM | DU-145 14.8 µM | EKVX 5.86 µM | HCC 2998 4.89 µM | HCT-116 3.52 µM | HL-60 4.74 µM | HOP-62 3.13 µM | HOP-92 7.24 µM | HT-29 9.1 µM | Hs-578T 8.61 µM | IGROV-1 2.77 µM | K562 3.58 µM | KM12 6.11 µM | LOX IMVI 5.78 µM | M14 8.15 µM | MCF7 2.39 µM | MDA-MB-231 4.51 µM | MDA-MB-435 2.24 µM | MDA-N 3.05 µM | MOLT-4 4.25 µM | Malme-3M 2.86 µM | NCI-H226 14.1 µM | NCI-H23 4.99 µM | NCI-H460 5.15 µM | NCI-H522 1.74 µM | NCI/ADR-RES 2.3 µM | OVCAR-3 4.73 µM | OVCAR-4 1.8 µM | OVCAR-5 48 µM | OVCAR-8 13.7 µM | PC-3 17.7 µM | RPMI-8226 3.07 µM | SF-268 13.3 µM | SF-295 4.24 µM | SF-539 4.25 µM | SK-MEL-28 4.02 µM | SK-MEL-2 4.18 µM | SK-MEL-5 3.07 µM | SK-OV-3 10.4 µM | SN12C 11.8 µM | SNB-19 17.1 µM | SR 2.79 µM | T47D 2.56 µM | TK-10 10.1 µM | U-251 13.6 µM | UACC-257 7.03 µM | UACC-62 3.42 µM | UO-31 7.18 µM

O=C1/C(=C/c2cccs2)N=C(c2ccccc2)N1c1nc2ccccc2s1
82.4 µM: HCT-15
inactive: 786-0 41.3 µM | A498 > 100 µM | A549 41.5 µM | ACHN > 100 µM | BT-549 53.3 µM | CAKI-1 14 µM | DU-145 67.3 µM | EKVX 49.9 µM | HCC 2998 > 100 µM | HCT-116 38.4 µM | HL-60 > 100 µM | HOP-62 > 100 µM | HOP-92 26.5 µM | HT-29 36.3 µM | Hs-578T 14.1 µM | IGROV-1 16 µM | K562 47.5 µM | KM12 > 100 µM | LOX IMVI > 100 µM | M14 > 100 µM | MCF7 49.9 µM | MDA-MB-231 > 100 µM | MDA-MB-435 > 100 µM | MDA-N 91.6 µM | MOLT-4 11.7 µM | NCI-H226 > 100 µM | NCI-H23 > 100 µM | NCI-H460 68.5 µM | NCI-H522 4.14 µM | NCI/ADR-RES 64.4 µM | OVCAR-3 > 100 µM | OVCAR-5 > 100 µM | OVCAR-8 62.1 µM | PC-3 > 100 µM | RPMI-8226 7.45 µM | RXF 393 33.3 µM | SF-268 7.74 µM | SF-295 > 100 µM | SF-539 > 100 µM | SK-MEL-28 > 100 µM | SK-MEL-2 > 100 µM | SK-MEL-5 > 100 µM | SN12C > 100 µM | SNB-19 > 100 µM | SR 33.6 µM | SW-620 86.9 µM | T47D 57.3 µM | TK-10 > 100 µM | U-251 95.1 µM | UACC-257 > 100 µM | UO-31 24.2 µM
active: CCRF-CEM 0.162 µM
